Laboratory results reported in US11472826B2, “Acyclic antivirals” (priority 2016, dated 2022).

Each compound was assayed on HBV (assay: microbe, parasite or virus in culture). Conditions: HepG2.117 cells, 72 hours, HBV viral copy numbers in supernatant; read-out: EC50.
Type: cell-based
`Nc1ncnc2c(C[C@H](OCP(=O)(O)O)C(F)F)cnn12` [Compound 65, (S) (((3-(4-aminoprazolo[1,5-a][1,3,5]triazin-8-yl)-1,1-difluoropropan-2-yl)oxy)methyl)phosphonic Acid] showed an EC50 of 1000 to 10000 nM.

Same assay, conditions: Hepatitis B virus, HepG2.117, 72 h
For `CC(C)OC(=O)[C@H](C)NP(=O)(CO[C@H](C)Cc1cnn2c(N)ncnc12)Oc1ccccc1` (stereo partly shown) [Compound 52], the EC50 was < 1000 nM. `CC(C)OC(=O)[C@H](C)NP(=O)(CO[C@H](C)Cc1cnc2c(N)ncnn12)Oc1ccccc1` (stereo partly shown) [Compound 53] was tested, and the EC50 was < 1000 nM. With `CC(C)OC(=O)[C@H](C)NP(=O)(COC(C)Cc1cnc2c(=O)[nH]c(N)nn12)Oc1ccccc1` (stereo partly shown) [Compound 61] the EC50 was < 1000 nM. `CC(C)OC(=O)[C@H](C)NP(=O)(CO[C@@H](CF)Cc1cnn2c(N)ncnc12)Oc1ccccc1` (stereo partly shown) [Compound 62] was tested, and the EC50 was < 1000 nM. With `CC(C)OC(=O)[C@H](C)NP(=O)(CO[C@H](CF)Cc1cnn2c(N)ncnc12)Oc1ccccc1` (stereo partly shown) [Compound 63] the EC50 was < 1000 nM.

Same assay, conditions: Hepatitis B virus; HepG2.117 cells, 72 hours, HBV viral copy numbers in supernatant; read-out: EC50
In the case of `Nc1ncnn2c(COCCP(=O)(O)O)ccc12` [Compound 1, (2-((4-aminopyrrolo[2,1-f][1,2,4]triazin-7-yl)methoxy)ethyl)phosphonic Acid], the EC50 is reported as < 1000 nM. Compound `C[C@H](Cc1ccc2c(N)ncnn12)OCP(=O)(O)O` [Compound 2, (R)-(((1-(4-aminopyrrolo[2,1-f][1,2,4]triazin-7-yl)propan-2-yl)oxy)methyl)phosphonic Acid] has an EC50 of 10000 to 100000 nM. In the case of `CC(Cc1ccc2c(N)nc(F)nn12)OCP(=O)(O)O` (stereo not shown) [Compound 8, (((1-(4-amino-2-fluoropyrrolo[2,1-f][1,2,4]triazin-7-yl)propan-2-yl)oxy)methyl)phosphonic Acid], the EC50 is reported as 10000 to 100000 nM. `CC(Cc1ccc2c(N)nc(N)nn12)OCP(=O)(O)O` (stereo not shown) [Compound 9, (((1-(2,4-diaminopyrrolo[2,1-f][1,2,4]triazin-7-yl)propan-2-yl)oxy)methyl) phosphonic Acid] was tested, and the EC50 was 1000 to 10000 nM. `Nc1ncnc2c(CC(CF)OCP(=O)(O)O)cnn12` (stereo not shown) [Compound 10, (1-(4-aminopyrazolo[1,5-a][1,3,5]triazin-8-yl)-3-fluoropropan-2-yloxy)methylphosphonic Acid] showed an EC50 of 1000 to 10000 nM. In the case of `CC(C)OC(=O)OCOP(=O)(CO[C@H](C)Cc1ccc2c(N)ncnn12)OCOC(=O)OC(C)C` [Compound 11], the EC50 is reported as < 1000 nM. Compound `CC(C)OC(=O)OCOP(=O)(COCCc1ccc2c(N)ncnn12)OCOC(=O)OC(C)C` [Compound 15] has an EC50 of 1000 to 10000 nM. `CC(C)OC(=O)OCOP(=O)(COC(CF)Cc1cnn2c(N)ncnc12)OCOC(=O)OC(C)C` (stereo not shown) [Compound 16] was tested, and the EC50 was < 1000 nM. Work on `CC(C)OC(=O)OCOP(=O)(COC(C)Cc1ccc2c(N)nc(N)nn12)OCOC(=O)OC(C)C` (stereo not shown) [Compound 18] yielded an EC50 of 1000 to 10000 nM. In the case of `CC(Cc1cnc2c(=O)[nH]c(N)nn12)OCP(=O)(O)O` (stereo not shown) [Compound 48, (((1-(2-amino-4-oxo-3,4-dihydroimidazo[2,1-f][1,2,4]triazin-7-yl)propan-2-yl)oxy)methyl)phosphonic Acid], the EC50 is reported as < 1000 nM. For `CC(C)OC(=O)OCOP(=O)(COC(C)Cc1ccc2c(=O)[nH]c(N)nn12)OCOC(=O)OC(C)C` (stereo not shown) [Compound 51], the EC50 was < 1000 nM. With `Nc1ncnc2c(CC3(OCP(=O)(O)O)CC3)cnn12` [Compound 64, ((1-((4-aminopyrazolo[1,5-a][1,3,5]triazin-8-yl)methyl)cyclopropoxy)methyl) phosphonic Acid] the EC50 was 10000 to 100000 nM. Compound `Nc1ncnc2c(C[C@@H](OCP(=O)(O)O)C(F)F)cnn12` [Compound 66, (R)-(((3-(4-aminopyrazolo[1,5-a][1,3,5]triazin-8-yl)-1,1-difluoropropan-2-yl)oxy)methyl)phosphonic Acid] has an EC50 of 1000 to 10000 nM. Work on `Nc1ncnn2c(C[C@@H](CF)OCP(=O)(O)O)cnc12` [Compound 67, (S)-(((1-(4-aminoimidazo[2,1-f][1,2,4]triazin-7-yl)-3-fluoropropan-2-yl)oxy)methyl) phosphonic Acid] yielded an EC50 of 10000 to 100000 nM. For `Nc1ncnn2c(C[C@H](CF)OCP(=O)(O)O)cnc12` [Compound 68, (R)-(((1-(4-aminoimidazo[2,1-f][1,2,4]triazin-7-yl)-3-fluoropropan-2-yl)oxy)methyl)phosphonic Acid], the EC50 was < 1000 nM.

The compounds below were run on VSV-G pseudotyped HIV NL4-3 (assay: microbe, parasite or virus in culture). Conditions: Human immunodeficiency virus 1, NL43, 72 h.
Type: cell-based
`Nc1ncnn2c(COCCP(=O)(O)O)ccc12` [Compound 1, (2-((4-aminopyrrolo[2,1-f][1,2,4]triazin-7-yl)methoxy)ethyl)phosphonic Acid] was tested, and the EC50 was > 100000 nM. For `C[C@H](Cc1ccc2c(N)ncnn12)OCP(=O)(O)O` [Compound 2, (R)-(((1-(4-aminopyrrolo[2,1-f][1,2,4]triazin-7-yl)propan-2-yl)oxy)methyl)phosphonic Acid], the EC50 was 20000 to 100000 nM. In the case of `Nc1ncnn2c(CCOCP(=O)(O)O)ccc12` [Compound 3, ((2-(4-aminopyrrolo[2,1-f][1,2,4]triazin-7-yl)ethoxy)methyl)phosphonic Acid], the EC50 is reported as > 100000 nM. In the case of `C[C@H](Cc1nnc2c(N)ncnn12)OCP(=O)(O)O` [Compound 4, (R)-(((1-(8-amino-[1,2,4]triazolo[3,4-f][1,2,4]triazin-3-yl)propan-2-yl)oxy)methyl)phosphonic Acid], the EC50 is reported as > 100000 nM. For `C[C@H](Cc1cnc2c(N)ncnn12)OCP(=O)(O)O` [Compound 5, (R)-(((1-(4-aminoimidazo[2,1-f][1,2,4]triazin-7-yl)propan-2-yl)oxy)methyl)phosphonic Acid], the EC50 was < 20000 nM. In the case of `C[C@H](Cc1ncc2c(N)ncnn12)OCP(=O)(O)O` [Compound 6, (R)-(((1-(4-aminoimidazo[5,1-f][1,2,4]triazin-7-yl)propan-2-yl)oxy)methyl)phosphonic Acid], the EC50 is reported as > 100000 nM. In the case of `CC(Cc1cnn2c(N)ncnc12)OCP(=O)(O)O` (stereo not shown) [Compound 7, (1-(4-aminopyrazolo[1,5-a][1,3,5]triazin-8-yl)propan-2-yloxy)methylphosphonic Acid], the EC50 is reported as < 20000 nM. `CC(Cc1ccc2c(N)nc(F)nn12)OCP(=O)(O)O` (stereo not shown) [Compound 8, (((1-(4-amino-2-fluoropyrrolo[2,1-f][1,2,4]triazin-7-yl)propan-2-yl)oxy)methyl)phosphonic Acid] was tested, and the EC50 was 20000 to 100000 nM. In the case of `CC(Cc1ccc2c(N)nc(N)nn12)OCP(=O)(O)O` (stereo not shown) [Compound 9, (((1-(2,4-diaminopyrrolo[2,1-f][1,2,4]triazin-7-yl)propan-2-yl)oxy)methyl) phosphonic Acid], the EC50 is reported as < 20000 nM. `Nc1ncnc2c(CC(CF)OCP(=O)(O)O)cnn12` (stereo not shown) [Compound 10, (1-(4-aminopyrazolo[1,5-a][1,3,5]triazin-8-yl)-3-fluoropropan-2-yloxy)methylphosphonic Acid] was tested, and the EC50 was < 20000 nM. `CC(C)OC(=O)OCOP(=O)(CO[C@H](C)Cc1ccc2c(N)ncnn12)OCOC(=O)OC(C)C` [Compound 11] was tested, and the EC50 was < 20000 nM. `C[C@H](Cc1cnn2c(N)ncnc12)OCP(=O)(O)O` [Compound 29] was tested, and the EC50 was 20000 to 100000 nM. `C[C@@H](Cc1cnn2c(N)ncnc12)OCP(=O)(O)O` [Compound 30] was tested, and the EC50 was < 20000 nM.

Each compound was assayed against Recombinant full length HIV-1 Reverse Transcriptase (HIVrt) (Human immunodeficiency virus type 1 group M subtype B (isolate HXB2) (HIV-1), UniProt P04585) (assay: Inhibition of HIV reverse transcriptase (HIVrt RNA-dependent DNA polymerization assay)). Conditions: 1 nM HIVrt, c5′UTR RNA template, 30° C., 40 min; phosphono diphosphates tested.
Type: biochemical
Protocol: Recombinant full length HIV-1 Reverse Transcriptase (HIVrt) was purchased from Abcam, catalog #ab63979. The last 385 nucleotide region of the HCV anti-genome complementary to the 5′ untranslated region (c5′UTR) was synthesized using T7 RNA polymerase Megascript kit from Ambion (Cat #AM1333). A DNA oligo served as an internal initiation primer and was purchased from IDT. Unless otherwise specified, reaction samples consisted of 20 nM c5′UTR RNA, 100 nM DNA primer, and 1 nM HIVrt, mixed together in a buffer containing 50 mM Tris pH 7.5, 100 mM KCl, 4 mM dithiothreitol (DTT), and 12.5 mM MgCl2. Reactions were initiated at 30° C. by adding 0.1 μM adenosine triphosphate (dATP), 0.1 μM cytosine triphosphate (dCTP), 1 μM guanosine triphosphate (dGTP), and 0.32 μM ^3H-thymidine triphosphate (^3H-TTP), in a final volume of 50 μL. After 40-mins incubation, the reaction was terminated by adding 60 μl of chilled 20% (w/v) trichloroacetic acid with 500 μM ATP to precipitate nucleic acids. After incubation at 4° C. for 1 h, the sample underwent filtration on a multiscreen BV 1.2-μm 96-well plate (Millipore). 40 μL Microscint-20 (Perkin Elmer) was added to the well and the counts in the sample were determined by a Trilux Microbeta microplate scintillation reader (Wallac).
All data were analyzed with GraphPad Prism. The compound concentration at which the enzyme-catalyzed rate was reduced by 50% (IC50) was calculated by fitting the data to the equation Y=% Min+(% Max−% Min)/(1+X/IC50), where Y corresponds to the percent relative enzyme activity, % Min is the residual relative activity at saturating compound concentration, % Max is the relative maximum enzyme activity, and X corresponds to the compound concentration. The Ki was calculated using the Cheng-Prusoff equation assuming competitive inhibition relative to natural dNTP incorporation: Ki=IC50/(1+[dNTP]/Km), where [dNTP] is the concentration of natural dNTP and Km is the apparent Km for dNTP. The standard HIVrt RNA-dependent DNA polymerization (RdDp) assay was used to determine the IC50 values.
In the case of `Nc1ncnn2c(COCCP(=O)(O)OP(=O)(O)OP(=O)(O)O)ccc12` [Compound 19], the IC50 is reported as ≥ 250 nM. For `Nc1ncnn2c(CCOCP(=O)(O)OP(=O)(O)OP(=O)(O)O)ccc12` [Compound 20], the IC50 was < 50 nM. For `C[C@H](Cc1ccc2c(N)ncnn12)OCP(=O)(O)OP(=O)(O)OP(=O)(O)O` [Compound 21], the IC50 was < 50 nM. In the case of `C[C@H](Cc1nnc2c(N)ncnn12)OCP(=O)(O)OP(=O)(O)OP(=O)(O)O` [Compound 22], the IC50 is reported as ≥ 250 nM. With `C[C@H](Cc1cnc2c(N)ncnn12)OCP(=O)(O)OP(=O)(O)OP(=O)(O)O` [Compound 23] the IC50 was < 50 nM. With `C[C@H](Cc1ncc2c(N)ncnn12)OCP(=O)(O)OP(=O)(O)OP(=O)(O)O` [Compound 24] the IC50 was ≥ 250 nM. For `C[C@H](Cc1cnn2c(N)ncnc12)OCP(=O)(O)OP(=O)(O)OP(=O)(O)O` [Compound 25], the IC50 was 50 to 250 nM. With `C[C@@H](Cc1cnn2c(N)ncnc12)OCP(=O)(O)OP(=O)(O)OP(=O)(O)O` [Compound 26] the IC50 was < 50 nM. With `CC(Cc1ccc2c(N)nc(F)nn12)OCP(=O)(O)OP(=O)(O)OP(=O)(O)O` (stereo not shown) [Compound 27] the IC50 was < 50 nM. `CC(Cc1ccc2c(N)nc(N)nn12)OCP(=O)(O)OP(=O)(O)OP(=O)(O)O` (stereo not shown) [Compound 28] was tested, and the IC50 was ≥ 250 nM. With `CC(Cc1ccc2c(=O)[nH]cnn12)OCP(=O)(O)OP(=O)(O)OP(=O)(O)O` (stereo not shown) [Compound 55] the IC50 was ≥ 250 nM. For `CC(Cc1ccc2c(=O)[nH]c(N)nn12)OCP(=O)(O)OP(=O)(O)OP(=O)(O)O` (stereo not shown) [Compound 56], the IC50 was < 50 nM. For `CC(Cc1cnc2c(=O)[nH]c(N)nn12)OCP(=O)(O)OP(=O)(O)OP(=O)(O)O` (stereo not shown) [Compound 57], the IC50 was 50 to 250 nM. In the case of `Nc1ncnc2c(C[C@@H](CF)OCP(=O)(O)OP(=O)(O)OP(=O)(O)O)cnn12` [Compound 58], the IC50 is reported as < 50 nM. For `Nc1ncnc2c(C[C@H](CF)OCP(=O)(O)OP(=O)(O)OP(=O)(O)O)cnn12` [Compound 59], the IC50 was < 50 nM. `Nc1ncnc2c(CC3(OCP(=O)(O)OP(=O)(O)OP(=O)(O)O)CC3)cnn12` [Compound 60] showed an IC50 of 50 to 250 nM. `Nc1ncnc2c(C[C@H](OCP(=O)(O)OP(=O)(O)OP(=O)(O)O)C(F)F)cnn12` [Compound 79] was tested, and the IC50 was ≥ 250 nM. Work on `Nc1ncnn2c(C[C@@H](CF)OCP(=O)(O)OP(=O)(O)OP(=O)(O)O)cnc12` [Compound 80] yielded an IC50 of 50 to 250 nM. `Nc1ncnc2c(C[C@@H](OCP(=O)(O)OP(=O)(O)OP(=O)(O)O)C(F)F)cnn12` [Compound 81] was tested, and the IC50 was 50 to 250 nM. In the case of `Nc1ncnn2c(C[C@H](CF)OCP(=O)(O)OP(=O)(O)OP(=O)(O)O)cnc12` [Compound 82], the IC50 is reported as 50 to 250 nM. With `CC(C)(Cc1cnn2c(=O)[nH]c(N)nc12)OCP(=O)(O)OP(=O)(O)OP(=O)(O)O` [Compound 83] the IC50 was ≥ 250 nM.
